Consider 31 compounds from patent US10081634B2, “Heterocyclic compound” (Daewoong Pharmaceutical Co., Ltd., priority 2014, dated 2018).

Where a name gives a salt, the structure may show the parent alone.

The test deals with T1, PRS (prolyl-tRNA synthetase) (Homo sapiens, UniProt P07814).
T1 construct: the portion corresponding to PRS in cDNA of EPRS was subcloned; made in house
T1 sequence (P07814 1007-1512 limits assumed): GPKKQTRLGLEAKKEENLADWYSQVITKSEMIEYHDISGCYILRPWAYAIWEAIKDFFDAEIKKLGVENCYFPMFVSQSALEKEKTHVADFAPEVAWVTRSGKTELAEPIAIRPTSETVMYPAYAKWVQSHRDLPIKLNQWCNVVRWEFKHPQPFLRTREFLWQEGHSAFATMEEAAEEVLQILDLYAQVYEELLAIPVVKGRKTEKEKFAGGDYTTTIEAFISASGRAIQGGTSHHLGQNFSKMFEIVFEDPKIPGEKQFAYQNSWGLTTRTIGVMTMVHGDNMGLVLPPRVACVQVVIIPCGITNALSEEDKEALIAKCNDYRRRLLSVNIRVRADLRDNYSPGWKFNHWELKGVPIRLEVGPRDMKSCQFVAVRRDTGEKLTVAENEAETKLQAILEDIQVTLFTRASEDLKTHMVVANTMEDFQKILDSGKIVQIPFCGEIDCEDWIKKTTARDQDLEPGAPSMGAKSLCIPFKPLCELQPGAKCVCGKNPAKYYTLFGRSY
As to the kind of experiment: In vitro PRS enzyme activity inhibition experiment ([3H]proline, liquid scintillation). In kind it is biochemical. The note with it: purified PRS protein subcloned from EPRS cDNA; 37° C., 5 to 10 minutes; read-out: PRS IC50. On the procedure:
In order to confirm the biological activities of the compounds prepared in Examples, % inhibition or IC50 values of PRS enzyme ([…]) activities were calculated.
Specifically, the portion corresponding to PRS in cDNA of EPRS was subcloned, and the obtained high-purity PRS protein was purified and used in the experiment. The compounds (1 μM) prepared in Examples were added into the reaction buffer (20 mM KPO4 (pH 7.4), 6 mM MgAc, 5 mM ATP, […] tRNA, 0.5 mM DTT, 20 mCi[^3H]proline (1 mCi/mL)) and allowed to react at 37° C. for 5 to 10 minutes. The reaction was terminated with 3M paper that was previously dried by addition of 5% TCA. The radioactivity was measured using a liquid scintillation counter.
IC50 values of the respective compounds were calculated and analyzed using Microsoft Excel or Sigma Plot 8.0. In Table 1, the results are divided into A, B and C according to the range of IC50. The case where the derived IC50 is 100 nM or less is represented by “A”, the case where the IC50 is 100 to 500 nM is represented by “B”, and the case where the IC50 is 500 nM or higher is represented by “C”.
Turning to `O/N=C(/C[C@H]1NCCC[C@@H]1O)Cn1cnc2ncc(Br)cc21` [Example 66, 1-(6-bromo-1H-imidazo[4,5-b]pyridin-1-yl)-3-((2R,3S)-3-hydroxypiperidin-2-yl)propan-2-one oxime], the IC50 was more than 500 nM.

Regarding `O=C(C[C@H]1NCCC[C@@H]1O)Cn1c(CO)nc2ncccc21` [Example 68, 1-(2-(hydroxymethyl)-1H-imidazo[4,5-b]pyridin-1-yl)-3-((2R,3S)-3-hydroxypiperidin-2-yl)propan-2-one], the 50% inhibitory concentration (IC50) lay in the range of 100 to 500 nM.

In the case of `OC(C[C@H]1NCCC[C@@H]1O)Cn1cnc2c(C(F)(F)F)c(Br)ccc21` (stereo partly drawn) [Example 72, (2R,3S)-2-(3-(5-bromo-4-(trifluoromethyl)-1H-benzo[d]imidazol-1-yl)-2-hydroxypropyl)piperidin-3-ol], the IC50 was more than 500 nM.

In the case of `Cc1ccc2c(ncn2CC(O)C[C@H]2NCCC[C@@H]2O)c1Br` (stereo partly drawn) [Example 73, (2R,3S)-2-(3-(4-bromo-5-methyl-1H-benzo[d]imidazol-1-yl)-2-hydroxypropyl)piperidin-3-ol], the IC50 was more than 500 nM.

With `Cc1c(Br)ccc2c1ncn2CC(O)(C[C@H]1NCCC[C@@H]1O)C(F)(F)F` (stereo partly drawn) [Example 85, (2R,3S)-2-(2-((5-bromo-4-methyl-1H-benzo[d]imidazol-1-yl)methyl)-3,3,3-trifluoro-2-hydroxypropyl)piperidin-3-ol], the IC50 is more than 500 nM.

Regarding `O=C(C[C@H]1NCCC[C@@H]1O)Cn1cnc2c1CCCC2` [Example 45, 1-((2R,3S)-3-hydroxypiperidin-2-yl)-3-(4,5,6,7-tetrahydro-1H-benzo[d]imidazol-1-yl)propan-2-one], the IC50 is 100 to 500 nM.

Regarding `O=C(C[C@H]1NCCC[C@@H]1O)Cn1ncc2cc(Cl)ccc21` [Example 96, 1-(5-chloro-1H-indazol-1-yl)-3-((2R,3S)-3-hydroxypiperidin-2-yl)propan-2-one], the IC50 is more than 500 nM.

Turning to `Cc1c(Cl)cnc2c1ncn2CC(O)C[C@H]1NCCC[C@@H]1O` (stereo partly drawn) [Example 77, (2R,3S)-2-(3-(6-chloro-7-methyl-3H-imidazo[4,5-b]pyridin-3-yl)-2-hydroxypropyl)piperidin-3-ol], the IC50 was more than 500 nM.

`OCc1nc2cc(Cl)c(Cl)cc2n1C/C(C[C@H]1NCCC[C@@H]1O)=N/O` [Example 65, 1-(5,6-dichloro-2-(hydroxymethyl)-1H-benzo[d]imidazol-1-yl)-3-((2R,3S)-3-hydroxypiperidin-2-yl)propan-2-one oxime]: the IC50 is more than 500 nM.

As for `C[C@@H](O)c1nc2ccccc2n1CC(=O)C[C@H]1NCCC[C@@H]1O` [Example 54, 1-(2-((R)-1-hydroxyethyl)-1H-benzo[d]imidazol-1-yl)-3-((2R,3S)-3-hydroxypiperidin-2-yl)propan-2-one], the IC50 is more than 500 nM.

Turning to `O=C(C[C@H]1NCCC[C@@H]1O)Cn1cnc2cc(C(=O)O)ncc21` [Example 43, 3-(3-((2R,3S)-3-hydroxypiperidin-2-yl)-2-oxopropyl)-3H-imidazo[4,5-c]pyridine-6-carboxylic acid hydrochloride salt], the IC50 was more than 500 nM.

Turning to `Cc1nc2ncccc2n1CC(=O)C[C@H]1NCCC[C@@H]1O` [Example 49, 1-((2R,3S)-3-hydroxypiperidin-2-yl)-3-(2-methyl-1H-imidazo[4,5-b]pyridin-1-yl)propan-2-one], the IC50 is more than 500 nM.

Take `O=C(C[C@H]1NCCC[C@@H]1O)Cn1cnc2c(Cl)cc(Cl)nc21` [Example 41, 1-(5,7-dichloro-3H-imidazo[4,5-b]pyridin-3-yl)-3-((2R,3S)-3-hydroxypiperidin-2-yl)propan-2-one]: the IC50 was less than 100 nM.

With `O=C(C[C@H]1NCCC[C@@H]1O)Cn1c(CCO)nc2ccc(F)cc21` [Example 53, 1-(6-fluoro-2-(2-hydroxyethyl)-1H-benzo[d]imidazol-1-yl)-3-((2R,3S)-3-hydroxypiperidin-2-yl)propan-2-one], the IC50 was more than 500 nM.

As to `Cc1nc2c(F)c(F)ccc2n1CC(=O)C[C@H]1NCCC[C@@H]1O` [Example 47, 1-(4,5-difluoro-2-methyl-1H-benzo[d]imidazol-1-yl)-3-((2R,3S)-3-hydroxypiperidin-2-yl)propan-2-one], the IC50 was more than 500 nM.

For the compound `Cc1ccc2c(cnn2CC(=O)C[C@H]2NCCC[C@@H]2O)c1Br` [Example 97, 1-(4-bromo-5-methyl-1H-indazol-1-yl)-3-((2R,3S)-3-hydroxypiperidin-2-yl)propan-2-one], the IC50 lay within 100 to 500 nM.

Take `O=C(C[C@H]1NCCC[C@@H]1O)Cn1ncc2cc(Cl)cnc21` [Example 98, 1-(5-chloro-1H-pyrazolo[3,4-b]pyridin-1-yl)-3-((2R,3S)-3-hydroxypiperidin-2-yl)propan-2-one]: the IC50 is more than 500 nM.

Take `OC(C[C@H]1NCCC[C@@H]1O)Cn1cnc2c(Cl)c(Br)cnc21` (stereo partly drawn) [Example 79, (2R,3S)-2-(3-(6-bromo-7-chloro-3H-imidazo[4,5-b]pyridin-3-yl)-2-hydroxypropyl)piperidin-3-ol]: the IC50 lay within 100 to 500 nM.

On to `O=C(C[C@H]1NCCC[C@@H]1O)Cn1cnc2c(Cl)ncnc21` [Example 44, 1-(6-chloro-9H-purin-9-yl)-3-((2R,3S)-3-hydroxypiperidin-2-yl)propan-2-one hydrochloride salt], for which the IC50 was more than 500 nM.

Consider `O=C(C[C@H]1NCCC[C@@H]1O)Cn1cnc2nc(Br)ccc21` [Example 29, 1-(5-bromo-1H-imidazo[4,5-b]pyridin-1-yl)-3-((2R,3S)-3-hydroxypiperidin-2-yl)propan-2-one], for which the half-inhibitory concentration (IC50) was more than 500 nM.

As to `OC(C[C@H]1NCCC[C@@H]1O)Cn1cnc2c(F)c(Br)ccc21` (stereo partly drawn) [Example 74, (2R,3S)-2-(3-(5-bromo-4-fluoro-1H-benzo[d]imidazol-1-yl)-2-hydroxypropyl)piperidin-3-ol], the concentration for half-maximal inhibition (IC50) is more than 500 nM.

Regarding `CO/N=C(/C[C@H]1NCCC[C@@H]1O)Cn1cnc2cc(Cl)c(Cl)cc21` [Example 67, 1-(5,6-dichloro-1H-benzo[d]imidazol-1-yl)-3-((2R,3S)-3-hydroxypiperidin-2-yl)propan-2-one O-methyl oxime], the IC50 is more than 500 nM.

With `COCc1nc2cc(Cl)c(Cl)cc2n1CC(=O)C[C@H]1NCCC[C@@H]1O` [Example 63, 1-(5,6-dichloro-2-(methoxymethyl)-1H-benzo[d]imidazol-1-yl)-3-((2R,3S)-3-hydroxypiperidin-2-yl)propan-2-one], the IC50 was more than 500 nM.

As to `Cc1c(Cl)ccc2c1ncn2CC(O)C[C@H]1NCCC[C@@H]1O` (stereo partly drawn) [Example 76, (2R,3S)-2-(3-(5-chloro-4-methyl-1H-benzo[d]imidazol-1-yl)-2-hydroxypropyl)piperidin-3-ol], the IC50 was more than 500 nM.

Consider `O=C(C[C@H]1NCCC[C@@H]1O)Cn1cnc2ncc(Br)cc21` [Example 31, 1-(6-bromo-1H-imidazo[4,5-b]pyridin-1-yl)-3-((2R,3S)-3-hydroxypiperidin-2-yl)propan-2-one], for which the IC50 was more than 500 nM.

Consider `OC(C[C@H]1NCCC[C@@H]1O)Cn1cnc2c(Cl)c(Cl)ccc21` (stereo partly drawn) [Example 75, (2R,3S)-2-(3-(4,5-dichloro-1H-benzo[d]imidazol-1-yl)-2-hydroxypropyl)piperidin-3-ol], for which the IC50 is more than 500 nM.

Turning to `CNC(C[C@H]1NCCC[C@@H]1O)Cn1cnc2cc(Cl)c(Cl)cc21` (stereo partly drawn) [Example 86, (2R,3S)-2-(3-(5,6-dichloro-1H-benzo[d]imidazol-1-yl)-2-(methylamino)propyl)piperidin-3-ol], the IC50 is more than 500 nM.

`O=C(C[C@H]1NCCC[C@@H]1O)Cn1ccc2cc(Cl)cnc21` [Example 91, 1-(5-chloro-1H-pyrrolo[2,3-b]pyridin-1-yl)-3-((2R,3S)-3-hydroxypiperidin-2-yl)propan-2-one]: the IC50 lay within 100 to 500 nM.

On to `O=C(C[C@H]1NCCC[C@@H]1O)Cn1cnc2cccnc21` [Example 34, 1-((2R,3S)-3-hydroxypiperidin-2-yl)-3-(3H-imidazo[4,5-b]pyridin-3-yl)propan-2-one], for which the IC50 lay in the range of 100 to 500 nM.

As to `C[C@H](O)c1nc2ccccc2n1CC(=O)C[C@H]1NCCC[C@@H]1O` [Example 55, 1-(2-((S)-1-hydroxyethyl)-1H-benzo[d]imidazol-1-yl)-3-((2R,3S)-3-hydroxypiperidin-2-yl)propan-2-one], the IC50 was more than 500 nM.

For the compound `O/N=C(/C[C@H]1NCCC[C@@H]1O)Cn1cnc2cc(Cl)c(Cl)cc21` [Example 64, 1-(5,6-dichloro-1H-benzo[d]imidazol-1-yl)-3-((2R,3S)-3-hydroxypiperidin-2-yl)propan-2-one oxime], the IC50 is more than 500 nM.

For orientation: IC50 means the concentration needed to halve the response being measured.
